Several values for one entry are separate records, joined by “and”; a condition that tells them apart may be missing. Identical values can stand only once. After the bases stand the sugars from the 5' end (letter, count) and the backbone: PS all phosphorothioate, else s phosphorothioate and o phosphodiester by linkage. Methylation of C is not given here. e = 2'-O-(2-methoxyethyl) (MOE); k = constrained ethyl (cEt); d = 2'-deoxy (DNA)
Biological target: IRF4
Settings: ASO

Row | Sequence | target mRNA inhibition (SK-MEL-28, 4 µM) | target mRNA inhibition (MM.1R, 1 µM) | further results
1 | GCAATGAACGGAAGTT (sugars k3 d10 k3, PS) | 45% |  | 
2 | GCACAGCCGTCCGCCT (sugars k3 d10 k3, PS) | 16% |  | 
3 | GCACAGGCGCGGACGC (sugars k3 d10 k3, PS) |  | -6% | 
4 | GCACATCAATGTTTTA (sugars kddddddddddkekek, PS) |  | 13% and 0% | 
5 | GCACATCAATGTTTTA (sugars kkddddddddddkeke, PS) |  | 49% and 50% | 
6 | GCACATCAATGTTTTA (sugars kkdddddddddekeke, PS) |  | 10% and 12% | 
7 | GCACATCAATGTTTTA (sugars kkdddddddddkdkdk, PS) |  | 11% and 7% | 
8 | GCAGCCAAGGATAACC (sugars k3 d10 k3, PS) |  | 6% | 
9 | GCAGCTTCTCAATGTT (sugars k3 d10 k3, PS) | 43% |  | 
10 | GCAGTAAACGCAAGTC (sugars k3 d10 k3, PS) | 54% |  | 
11 | GCAGTCAATTGGACGC (sugars k3 d10 k3, PS) | 77% |  | 
12 | GCAGTGATGTCAGGTT (sugars k3 d9 k3 e1, PS) |  | 62% | target mRNA inhibition (MM.1R, 0.074 µM): 15%; target mRNA inhibition (MM.1R, 0.222 µM): 33%; target mRNA inhibition (MM.1R, 0.666 µM): 51%; target mRNA inhibition (MM.1R, 2 µM): 73%
13 | GCAGTGATGTCAGGTT (sugars kkkddddddddkekek, PS) |  | 36% | 
14 | GCATAAAAGGTTCCTG (sugars k4 d8 k4, PS) | 47% |  | target mRNA inhibition (MM.1R, 0.074 µM): 0%; target mRNA inhibition (MM.1R, 0.222 µM): -3%; target mRNA inhibition (MM.1R, 0.666 µM): -7%; target mRNA inhibition (MM.1R, 2 µM): 3%; target mRNA inhibition (SK-MEL-28, 0.185 µM): 4% and 9% and 17%; target mRNA inhibition (SK-MEL-28, 5 µM): 34% and 37% and 50%; target mRNA inhibition (SK-MEL-28, 15 µM): 75% and 72% and 89%
15 | GCATAGAGCCCGTCGG (sugars k3 d10 k3, PS) | 50% |  | 
16 | GCATAGGTCCTTCAGA (sugars k3 d10 k3, PS) | 31% |  | 
17 | GCATCGAGATCAGTCT (sugars k3 d10 k3, PS) | 57% |  | 
18 | GCATGACAGGGCGAGG (sugars k3 d10 k3, PS) | 43% |  | 
19 | GCATGAGGGTGACACA (sugars k3 d10 k3, PS) | 42% |  | 
20 | GCATTTGGAAAAAGCC (sugars k3 d10 k3, PS) | 71% |  | 
21 | GCATTTTATCATCCGA (sugars kddddddddddkekek, PS) |  | 21% | 
22 | GCATTTTATCATCCGA (sugars kkkdddddddddkeke, PS) |  | 32% | 
23 | GCCAAACAAACAGAGG (sugars k3 d10 k3, PS) | 22% |  | 
24 | GCCAACTTATAGCACT (sugars k3 d10 k3, PS) |  |  | target mRNA inhibition (MM.1R, 0.0625 µM): 17%; target mRNA inhibition (MM.1R, 0.25 µM): -17%; target mRNA inhibition (MM.1R, 4 µM): 8%
25 | GCCAAGGAGGCGGGCC (sugars k3 d10 k3, PS) |  | -2% | 
26 | GCCAAGGATAACCTGA (sugars k3 d10 k3, PS) | 69% | 27% | target mRNA inhibition (MM.1R, 0.0625 µM): 1%; target mRNA inhibition (MM.1R, 0.074 µM): 0%; target mRNA inhibition (MM.1R, 0.222 µM): 5%; target mRNA inhibition (MM.1R, 0.25 µM): 10%; target mRNA inhibition (MM.1R, 0.666 µM): 13%; target mRNA inhibition (MM.1R, 2 µM): 37%; target mRNA inhibition (MM.1R, 4 µM): 59%

Row | Sequence | target mRNA inhibition (SK-MEL-28, 4 µM) | target mRNA inhibition (MM.1R, 1 µM) | further results
27 | GCCACCGACTCTTTTT (sugars k3 d10 k3, PS) |  | -5% | 
28 | GCCCATGTGAGCTCTT (sugars k3 d10 k3, PS) | 50% |  | 
29 | GCCCGGGAGAGCGGAG (sugars k3 d10 k3, PS) |  | -32% | 
30 | GCCGAACTCTCCGCCT (sugars k3 d10 k3, PS) | 51% |  | 
31 | GCCGAAGTCAACAGGA (sugars k3 d10 k3, PS) |  | -17% | 
32 | GCCTTCTCGGAACTTT (sugars k3 d10 k3, PS) | 32% |  | 
33 | GCGAATGTGCCTTGTG (sugars k3 d10 k3, PS) |  | 12% | 
34 | GCGACTGCTGAAAACC (sugars k3 d10 k3, PS) |  | -4% | 
35 | GCGCACTAAGTGGGCT (sugars k3 d10 k3, PS) | -10% |  | 
36 | GCGCATCCCCTGGGCG (sugars k3 d10 k3, PS) | -4% |  | 
37 | GCGCCCAATCACCTTC (sugars k3 d10 k3, PS) | 3% |  | 
38 | GCGCGGAGGACCTCGC (sugars k3 d10 k3, PS) | 10% |  | 
39 | GCGGAGGACCTCGCCT (sugars k3 d10 k3, PS) | 8% |  | 
40 | GCTAAACCTGGCACCA (sugars k3 d10 k3, PS) |  | 7% | 
41 | GCTAAAGGAGTGCAGG (sugars k3 d10 k3, PS) | 7% |  | 
42 | GCTAGAACATGATGAG (sugars k3 d10 k3, PS) | 14% |  | 
43 | GCTCAACCTGGAAGGA (sugars k3 d10 k3, PS) | 25% |  | 
44 | GCTCAATAATCTCCCA (sugars k3 d10 k3, PS) |  | 0% | 
45 | GCTCAGAATGAAGTTA (sugars k3 d10 k3, PS) | 48% |  | 
46 | GCTCCACAGCAAGGCC (sugars k3 d10 k3, PS) | 58% |  | 
47 | GCTCGGAGCGACCCAA (sugars k3 d10 k3, PS) | 8% |  | 
48 | GCTGAAACGGTCAGCA (sugars k3 d10 k3, PS) |  | 8% | 
49 | GCTGAACCCCACAGGA (sugars k3 d10 k3, PS) |  | 0% | 
50 | GCTGAATTGTCATGAA (sugars k3 d10 k3, PS) | 36% |  | 
51 | GCTGAGATAAGAAGCA (sugars k3 d10 k3, PS) | 32% |  | 
52 | GCTGAGATAGGAAGCA (sugars k3 d10 k3, PS) | 19% |  | 

Row | Sequence | target mRNA inhibition (SK-MEL-28, 4 µM) | target mRNA inhibition (MM.1R, 1 µM) | further results
53 | GCTGTGTGTCAAAGAG (sugars k3 d10 k3, PS) | 6% |  | 
54 | GCTTACAAAAACTTGG (sugars k3 d10 k3, PS) | 26% |  | 
55 | GCTTACTGTGATTCTG (sugars k3 d10 k3, PS) | 34% |  | 
56 | GCTTCAAGACAGGTCT (sugars k3 d10 k3, PS) |  | 29% | 
57 | GGAAAGACAAGTGCCC (sugars k3 d10 k3, PS) | 54% |  | 
58 | GGAAATTCAAGCTTTC (sugars k3 d10 k3, PS) | 64% |  | 
59 | GGAACAAAAGGTTCCC (sugars k3 d10 k3, PS) | 12% |  | 
60 | GGAACTAGTCGACAGC (sugars k3 d10 k3, PS) |  | 18% | 
61 | GGAAGCACTGGCATCG (sugars k3 d10 k3, PS) | 55% |  | 
62 | GGAATGGCGGATAGAT (sugars k3 d10 k3, PS) | 33% |  | 
63 | GGAATTTCCATTGGAG (sugars k3 d10 k3, PS) | 44% |  | 
64 | GGACAATGGAGATACT (sugars k3 d10 k3, PS) |  | 3% | 
65 | GGACACCACCTCGAGG (sugars k3 d10 k3, PS) |  | 1% | 
66 | GGACAGACCAGGATTC (sugars k3 d10 k3, PS) | 25% |  | 
67 | GGACGCACGGAGAGGG (sugars k3 d10 k3, PS) |  | 15% | 
68 | GGAGAATTTGGGCTGG (sugars k3 d10 k3, PS) | 75% |  | 
69 | GGAGAGCGGAGGCGGG (sugars k3 d10 k3, PS) | 21% |  | 
70 | GGAGGATCATAAAGGA (sugars k3 d10 k3, PS) |  | 32% | 
71 | GGATAATATACCCCAA (sugars k3 d10 k3, PS) | 64% |  | 
72 | GGCAAGCTGAATGCTC (sugars k3 d10 k3, PS) | 29% |  | 
73 | GGCAATGGAGTCTCGC (sugars k3 d10 k3, PS) | 50% |  | 
74 | GGCACATCAATGTTTT (sugars kkdddddddddekeke, PS) |  | 22% and 26% | 
75 | GGCACGAGGAAGCATA (sugars k3 d10 k3, PS) | 62% |  | 
76 | GGCAGTGGAGCTCCAC (sugars k3 d10 k3, PS) | 73% |  | 
77 | GGCCAAATTGCAAAGG (sugars k3 d10 k3, PS) | 48% |  | 
78 | GGCCACATTAGCAATT (sugars k3 d10 k3, PS) |  | 0% | 

Row | Sequence | target mRNA inhibition (SK-MEL-28, 4 µM) | target mRNA inhibition (MM.1R, 1 µM) | further results
79 | GGCCATTCGAGGTGAT (sugars k3 d10 k3, PS) |  | 1% | 
80 | GGCCCGGGCGCATCCC (sugars k3 d10 k3, PS) | 5% |  | 
81 | GGCCGGAGACCTTGAA (sugars k3 d10 k3, PS) | 3% |  | 
82 | GGCCTCCCGCTTGTGG (sugars k3 d10 k3, PS) | -18% |  | 
83 | GGCCTTAGCCTTCCTG (sugars k3 d10 k3, PS) | 17% |  | 
84 | GGCCTTGCCAGTGGTG (sugars k3 d10 k3, PS) | -12% |  | 
85 | GGCCTTGCCAGTGGTG (sugars k4 d8 k4, PS) | 6% |  | 
86 | GGCGACGACAGCTGCG (sugars k3 d10 k3, PS) |  | -15% | 
87 | GGCGAGTTGGCACAAT (sugars k3 d10 k3, PS) |  | 49% and 30% | target mRNA inhibition (MM.1R, 0.0625 µM): -13%; target mRNA inhibition (MM.1R, 0.25 µM): 3%; target mRNA inhibition (MM.1R, 4 µM): 60%
88 | GGCGCGCTCCCTTCCC (sugars k3 d10 k3, PS) | 10% |  | 
89 | GGCGGACACGCCCGAC (sugars k3 d10 k3, PS) |  | 7% | 
90 | GGCGGAGCATCAACAA (sugars k3 d10 k3, PS) | 60% |  | 
91 | GGCGGAGCTTCCCGTT (sugars k3 d10 k3, PS) | 26% |  | 
92 | GGCTATCAGGATCTCA (sugars k3 d10 k3, PS) | 45% |  | 
93 | GGCTCAACCTGGAAGG (sugars k3 d10 k3, PS) | 29% |  | 
94 | GGCTGAACTGTGTAAT (sugars k3 d10 k3, PS) | 72% |  | 
95 | GGCTTTGTGTTTAAGT (sugars k3 d10 k3, PS) | 23% |  | 
96 | GGGAAAGAGCTTTGGT (sugars k3 d10 k3, PS) | 5% |  | 
97 | GGGAACAGGACCTGGT (sugars k3 d10 k3, PS) | 55% |  | 
98 | GGGAACCTGAAAAGAG (sugars k3 d10 k3, PS) | 21% |  | 
99 | GGGAATTTCCATTGGA (sugars k3 d10 k3, PS) | 44% |  | 
100 | GGGAGATCCGGCAGCC (sugars k4 d8 k4, PS) | -13% |  | 
101 | GGGATTATATACTGGT (sugars kdddddddddkekeke, PS) |  | 29% | 
